Results taken from patent publication US12281102B2, “Inhibitors of APOL1 and methods of using same” (Vertex Pharmaceuticals Incorporated, priority 2020, dated 2025).
pIC50: −log10 of the molar value. Where two headings read alike, the source gives them in different places.

Molecular target: T1, G1 APOL1 (Homo sapiens, UniProt O14791, I384M/S342G)
T1 construct: expressed in transfected cells
T1 sequence (O14791 28-398 S342G/I384M): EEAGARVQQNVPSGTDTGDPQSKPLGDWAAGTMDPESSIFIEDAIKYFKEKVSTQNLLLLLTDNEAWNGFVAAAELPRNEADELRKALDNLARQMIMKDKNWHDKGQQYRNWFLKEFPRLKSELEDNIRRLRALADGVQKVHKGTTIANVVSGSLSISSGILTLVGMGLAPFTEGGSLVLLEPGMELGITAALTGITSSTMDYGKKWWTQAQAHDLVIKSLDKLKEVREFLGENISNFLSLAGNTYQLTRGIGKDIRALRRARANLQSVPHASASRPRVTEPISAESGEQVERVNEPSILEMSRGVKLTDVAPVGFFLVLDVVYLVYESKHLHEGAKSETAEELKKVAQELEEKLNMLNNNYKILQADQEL
Assay: Acute APOL1 Thallium Assay with inducible stable clones of HEK 293 cells
Assay type: cell-based
Conditions: HEK 293 T-Rex inducible stable clone expressing G1 APOL1
Procedure, shortened: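 APOL1 pore function was measured as thallium influx, detected by a Tl+-sensitive fluorescent dye loaded as AM ester, on a FLIPR Tetra after Tl+ addition. Cells were HEK T-Rex G1 APOL1 clone DC3.25, 26,000 per well, induced with tetracycline at plating in Opti-MEM assay medium.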

[1] = read-out: Thallium Assay (IC50)

| Structure (SMILES) | pIC50 [1] | pIC50 (Thallium Assay (IC50)) |
| --- | --- | --- |
| O=C(CC1CCOCC1)N[C@H]1C[C@H](c2c(-c3ccc(F)cc3)[nH]c3c(F)cc(F)cc32)C1 [Compound 100] | < 6.00 |  |
| O=C(CC1CS(=O)(=O)C1)N[C@H]1C[C@H](c2c(-c3ccc(F)cc3)[nH]c3c(F)cc(F)cc32)C1 [Compound 101] | < 6.00 |  |
| CN(CC(=O)N[C@H]1C[C@H](c2c(-c3ccc(F)cc3)[nH]c3c(F)cc(F)cc32)C1)S(C)(=O)=O [Compound 103] | < 6.00 |  |
| CN1CCCC(CC(=O)N[C@H]2C[C@H](c3c(-c4ccc(F)cc4)[nH]c4c(F)cc(F)cc43)C2)C1 (stereo partly drawn) [Compound 104] | < 6.00 |  |
| CS(=O)(=O)NCC(=O)N[C@H]1C[C@H](c2c(-c3ccc(F)cc3)[nH]c3c(F)cc(F)cc32)C1 [Compound 107] | < 6.00 |  |
| CCS(=O)(=O)NCC(=O)N[C@H]1C[C@H](c2c(-c3ccc(F)cc3)[nH]c3c(F)cc(F)cc32)C1 [Compound 108] | < 6.00 |  |
| O=C(CCN1CCCC1)N[C@H]1C[C@H](c2c(-c3ccc(F)cc3)[nH]c3c(F)cc(F)cc32)C1 [Compound 109] | < 6.00 |  |
| CN1CCC(CC(=O)N[C@H]2C[C@H](c3c(-c4ccc(F)cc4)[nH]c4c(F)cc(F)cc43)C2)C1 (stereo partly drawn) [Compound 110] | < 6.00 |  |
| O=C(CN1CCCC1)N[C@H]1C[C@H](c2c(-c3ccc(F)cc3)[nH]c3c(F)cc(F)cc32)C1 [Compound 112] | < 6.00 |  |
| O=C(CC1(O)CCCCC1)N[C@H]1C[C@H](c2c(-c3ccc(F)cc3)[nH]c3c(F)cc(F)cc32)C1 [Compound 113] | < 6.00 |  |
| O=C(CCN1CCCC1=O)N[C@H]1C[C@H](c2c(-c3ccc(F)cc3)[nH]c3c(F)cc(F)cc32)C1 [Compound 114] | < 6.00 |  |
| Cn1nccc1CC(=O)N[C@H]1C[C@H](c2c(-c3ccc(F)cc3)[nH]c3c(F)cc(F)cc32)C1 [Compound 115] | < 6.00 |  |
| CN1CCC(CC(=O)N[C@H]2C[C@H](c3c(-c4ccc(F)cc4)[nH]c4c(F)cc(F)cc43)C2)CC1 [Compound 117] | < 6.00 |  |
| O=C(CC1CCCOC1)N[C@H]1C[C@H](c2c(-c3ccc(F)cc3)[nH]c3c(F)cc(F)cc32)C1 (stereo partly drawn) [Compound 118] | < 6.00 |  |
| CS(=O)(=O)CCC(=O)N[C@H]1C[C@H](c2c(-c3ccc(F)cc3)[nH]c3c(F)cc(F)cc32)C1 [Compound 119] | < 6.00 |  |
| O=C(CC(=O)N1CCOCC1)N[C@H]1C[C@H](c2c(-c3ccc(F)cc3)[nH]c3c(F)cc(F)cc32)C1 [Compound 120] | < 6.00 |  |
| O=C(CN1CCOCC1)N[C@H]1C[C@H](c2c(-c3ccc(F)cc3)[nH]c3c(F)cc(F)cc32)C1 [Compound 121] | < 6.00 |  |
| CN(C)CCC(=O)N[C@H]1C[C@H](c2c(-c3ccc(F)cc3)[nH]c3c(F)cc(F)cc32)C1 [Compound 122] | < 6.00 |  |

| Structure (SMILES) | pIC50 [1] | pIC50 (Thallium Assay (IC50)) |
| --- | --- | --- |
| O=C(CCN1CCCCC1)N[C@H]1C[C@H](c2c(-c3ccc(F)cc3)[nH]c3c(F)cc(F)cc32)C1 [Compound 124] | < 6.00 |  |
| Cc1nccn1CC(=O)N[C@H]1C[C@H](c2c(-c3ccc(F)cc3)[nH]c3c(F)cc(F)cc32)C1 [Compound 126] | < 6.00 |  |
| CC1(C)CCC(C(=O)N[C@H]2C[C@H](c3c(-c4ccc(F)cc4)[nH]c4c(F)cc(F)cc43)C2)N1 (stereo partly drawn) [Compound 127] | < 6.00 |  |
| O=C1CC(CC(=O)N[C@H]2C[C@H](c3c(-c4ccc(F)cc4)[nH]c4c(F)cc(F)cc43)C2)CC(=O)N1 [Compound 132] | < 6.00 |  |
| O=C(CO)N[C@H]1C[C@H](c2c(-c3ccc(F)cc3)[nH]c3c(F)cc(F)cc32)C1 [Compound 136] | > 6.60 |  |
| NCC(=O)N[C@H]1C[C@H](c2c(-c3ccc(F)cc3)[nH]c3c(F)cc(F)cc32)C1 [Compound 137] |  | > 6.60 |
| O=C(CC1COC1)N[C@H]1C[C@H](c2c(-c3ccc(F)cc3)[nH]c3c(F)cc(F)cc32)C1 [Compound 138] | < 6.00 |  |
| O=C(Cn1cnnc1)N[C@H]1C[C@H](c2c(-c3ccc(F)cc3)[nH]c3c(F)cc(F)cc32)C1 [Compound 139] | < 6.00 |  |
| O=C1CC(C(=O)N[C@H]2C[C@H](c3c(-c4ccc(F)cc4)[nH]c4c(F)cc(F)cc43)C2)CN1 (stereo partly drawn) [Compound 140] | < 6.00 |  |
| Cn1ccnc1S(=O)(=O)N[C@H]1C[C@H](c2c(-c3ccc(F)cc3)[nH]c3c(F)cc(F)cc32)C1 [Compound 148] | < 6.00 |  |
| O=S(=O)(N[C@H]1C[C@H](c2c(-c3ccc(F)cc3)[nH]c3c(F)cc(F)cc32)C1)c1c[nH]cn1 [Compound 150] | 6.00 to 6.60 |  |
| O=C1NC(=O)C(CCS(=O)(=O)N[C@H]2C[C@H](c3c(-c4ccc(F)cc4)[nH]c4c(F)cc(F)cc43)C2)N1 (stereo partly drawn) [Compound 151] | 6.00 to 6.60 |  |
| CCC(C)S(=O)(=O)N[C@H]1C[C@H](c2c(-c3ccc(F)cc3)[nH]c3c(F)cc(F)cc32)C1 (stereo partly drawn) [Compound 152] | < 6.00 |  |
| O=c1[nH]c2ccc(S(=O)(=O)N[C@H]3C[C@H](c4c(-c5ccc(F)cc5)[nH]c5c(F)cc(F)cc54)C3)cc2[nH]1 [Compound 153] | < 6.00 |  |
| O=S(=O)(N[C@H]1C[C@H](c2c(-c3ccc(F)cc3)[nH]c3c(F)cc(F)cc32)C1)c1n[nH]c2ncccc12 [Compound 154] | < 6.00 |  |
| O=c1ccc2cc(S(=O)(=O)N[C@H]3C[C@H](c4c(-c5ccc(F)cc5)[nH]c5c(F)cc(F)cc54)C3)ccc2[nH]1 [Compound 155] | < 6.00 |  |
| O=S(=O)(N[C@H]1C[C@H](c2c(-c3ccc(F)cc3)[nH]c3c(F)cc(F)cc32)C1)C1CCOCC1 [Compound 156] | < 6.00 |  |
| O=C(N[C@H]1C[C@H](Cc2c(-c3ccc(F)cc3)[nH]c3c(F)cc(F)cc23)C1)C1(CO)CC1 [Compound 159, N-[3-[[5,7-difluoro-2-(4-fluorophenyl)-1H-indol-3-yl]methyl]cyclobutyl]-1-(hydroxymethyl)cyclopropanecarboxamide] | < 6.00 |  |

Second part, led by results:

| pIC50 [1] | Structure (SMILES) | pIC50 (Thallium Assay (IC50)) |
| --- | --- | --- |
| 6.00 to 6.60 | Cn1ccc(CC(=O)N[C@H]2C[C@H](c3c(-c4ccc(F)cc4)[nH]c4c(F)cc(F)cc43)C2)n1 [Compound 106] |  |
| 6.00 to 6.60 | NS(=O)(=O)CCC(=O)N[C@H]1C[C@H](c2c(-c3ccc(F)cc3)[nH]c3c(F)cc(F)cc32)C1 [Compound 116] |  |
| 6.00 to 6.60 | CN(C)C(=O)CCC(=O)N[C@H]1C[C@H](c2c(-c3ccc(F)cc3)[nH]c3c(F)cc(F)cc32)C1 [Compound 123] |  |
| > 6.60 | COCCC(=O)N[C@H]1C[C@H](c2c(-c3ccc(F)cc3)[nH]c3c(F)cc(F)cc32)C1 [Compound 125] |  |
| > 6.60 | O=C1CC(C(=O)N[C@H]2C[C@H](c3c(-c4ccc(F)cc4)[nH]c4c(F)cc(F)cc43)C2)C(=O)N1 (stereo partly drawn) [Compound 128] |  |
| > 6.60 | N#CCC(=O)N[C@H]1C[C@H](c2c(-c3ccc(F)cc3)[nH]c3c(F)cc(F)cc32)C1 [Compound 129] |  |
| 6.00 to 6.60 | CC(F)(F)C(=O)N[C@H]1C[C@H](c2c(-c3ccc(F)cc3)[nH]c3c(F)cc(F)cc32)C1 [Compound 130] |  |
| 6.00 to 6.60 | O=C(N[C@H]1C[C@H](c2c(-c3ccc(F)cc3)[nH]c3c(F)cc(F)cc32)C1)C1COC1 [Compound 131] |  |
| > 6.60 | CC(C)(O)C(=O)N[C@H]1C[C@H](c2c(-c3ccc(F)cc3)[nH]c3c(F)cc(F)cc32)C1 [Compound 133] |  |
| 6.00 to 6.60 | CNCCC(=O)N[C@H]1C[C@H](c2c(-c3ccc(F)cc3)[nH]c3c(F)cc(F)cc32)C1 [Compound 134] |  |
| > 6.60 | O=C(N[C@H]1C[C@H](c2c(-c3ccc(F)cc3)[nH]c3c(F)cc(F)cc32)C1)C1(O)CC1 [Compound 135] |  |
| 6.00 to 6.60 | CNC1(C(=O)N[C@H]2C[C@H](c3c(-c4ccc(F)cc4)[nH]c4c(F)cc(F)cc43)C2)CC1 [Compound 141] |  |
| > 6.60 | O=C(N[C@H]1C[C@H](c2c(-c3ccc(F)cc3)[nH]c3c(F)cc(F)cc32)C1)C1(CO)CC1 [Compound 142] |  |
| 6.00 to 6.60 | Cn1cnc(CC(=O)N[C@H]2C[C@H](c3c(-c4ccc(F)cc4)[nH]c4c(F)cc(F)cc43)C2)c1 [Compound 143] |  |
| > 6.60 | O=C(N[C@H]1C[C@H](c2c(-c3ccc(F)cc3)[nH]c3c(F)cc(F)cc32)C1)C(F)F [Compound 144] |  |
| 6.00 to 6.60 | O=S(=O)(N[C@H]1C[C@H](c2c(-c3ccc(F)cc3)[nH]c3c(F)cc(F)cc32)C1)c1cn[nH]c1 [Compound 145, N-[(1r,3r)-3-[5,7-difluoro-2-(4-fluorophenyl)-1H-indol-3-yl]cyclobutyl]-1H-pyrazole-4-sulfonamide] |  |
| > 6.60 | O=S(=O)(CCO)N[C@H]1C[C@H](c2c(-c3ccc(F)cc3)[nH]c3c(F)cc(F)cc32)C1 [Compound 146] |  |
| > 6.60 | CCS(=O)(=O)N[C@H]1C[C@H](c2c(-c3ccc(F)cc3)[nH]c3c(F)cc(F)cc32)C1 [Compound 147] |  |
| 6.00 to 6.60 | CC(C)S(=O)(=O)N[C@H]1C[C@H](c2c(-c3ccc(F)cc3)[nH]c3c(F)cc(F)cc32)C1 [Compound 149] |  |
| > 6.60 | N[C@H]1C[C@H](Cc2c(-c3ccc(F)cc3)[nH]c3c(F)cc(F)cc23)C1 [Compound 157, trans-3-[[5,7-difluoro-2-(4-fluorophenyl)-1H-indol-3-yl]methyl]cyclobutanamine] |  |
| > 6.60 | N[C@H]1C[C@@H](Cc2c(-c3ccc(F)cc3)[nH]c3c(F)cc(F)cc23)C1 [Compound 158, cis-3-[[5,7-difluoro-2-(4-fluorophenyl)-1H-indol-3-yl]methyl]cyclobutanamine] |  |
